Measured values: US20090074815A1, “Immunomodulator Compounds as Vaccine Enhancers” (SCICLONE PHARMACEUTICALS, INC., priority 2005, published 2009)

How the values were obtained:
thymic cells [1] = assay: Expression of T-cell subpopulation and activation markers (CD69, CD25) on thymic cells, flow cytometry; format: in vivo, mice; conditions: for CD25-positive cells, % / CD69-positive, %: thymic cells cultured in vitro 48 hours
Source text: Materials and Methods: Eighteen (18) to twenty (20) gram (g) male mice, purchased from the Rappolovo Animal Facility, Russia, were used in the studies described below. C57BL/6 (B6) mice were used to evaluate the effect of SCV-07 in non-immunized mice. CBAxC57BL/6 (F1) mice were used for studies of the effects of SCV-07 on the antigen-specific immune response. Mice were kept under the standard animal facility conditions and were provided with a standard diet and water ad libitum. Each treatment group included 4-5 mice. […] Analysis by Flow Cytometry: […] The expression of T-cell subpopulation markers (CD3, CD4, and CD8) and activation markers (CD69 and CD25) on thymic cells and splenocytes was studied ex vivo 72 hours after the last treatment with SCV-07. […] The expression of the CD69 marker increased after oral administration of SCV-07 tablets at doses of 0.1 and 1.0 μg/kg of body mass as well as after i/p administration at a dose of 1.0 μg/kg.

thymic cells [2] = assay: ConA-induced proliferation of thymic cells (3H-thymidine uptake); format: in vivo, mice
Source text: Materials and Methods: Eighteen (18) to twenty (20) gram (g) male mice, purchased from the Rappolovo Animal Facility, Russia, were used in the studies described below. C57BL/6 (B6) mice were used to evaluate the effect of SCV-07 in non-immunized mice. CBAxC57BL/6 (F1) mice were used for studies of the effects of SCV-07 on the antigen-specific immune response. Mice were kept under the standard animal facility conditions and were provided with a standard diet and water ad libitum. Each treatment group included 4-5 mice. […] A suspension containing filling agents alone, which corresponded to the maximum amount of filling agents in the doses of SCV-07 administered to experimental animals, was used a control. […] Assessment of Mitogen- and Antigen-Induced Proliferation: […] Antigen-specific proliferation was studied by stimulating thymocytes and splenoctyes in vitro with different concentrations of OvA for 96 h. Twenty (20) to twenty-four (24) hours prior to completion of incubation, 3H-labeled thymidine (5 μCi/ml) was added to the cells. The cells were then transferred to fiberglass filters with a Titertek® semi-automatic cell harvester. Thymidine uptake was measured using a RackBeta 1217 (Wallac) liquid scintillation β-counter. For quantitative analysis of proliferation, the stimulation index (SI) was calculated as a ratio of the intensity of label inclusion in the stimulated cells to that in non-stimulated cells.

[3] = Clinical manifestations of infectious syndrome (ARVI, ENT diseases, herpes, gastrointestinal, urogenital) after vaccination with SCV-07; format: in vivo, human
Source text: The protocol of the placebo-controlled, randomized study of the efficacy of vaccination against viral hepatitis B was approved by the committee of ethics of the Chelyabinsk State Medical Academy. […] Diagnosis of the infectious syndrome was made in accordance with the standards of diagnostics and treatment of secondary immunodeficiencies recommended by the institute of Immunology of the Ministry of Public Health of the RF, Moscow. (R. M. Kahaitov, N. I. Iljina, L. V. and Luss et al., 2002) All subjects gave their personal consent to participate in the study and submitted a signed informed consent form.
Data on the incidence of episodes and relapses of chronic diseases for each immunocompromised subject were recorded during pre- and post vaccination periods and used to compare the immunological clinical parameters of each subject in the pre- and post vaccination periods. Chronic diseases that were tracked included diseases of the ears, nose and throat, urinary systems, genital systems and gastrointestinal tract, and diseases of the skin, hair and nails (the integumentary tissues).
Participants in the study had the following clinical manifestations of infectious syndrome: sixty-seven percent (67%) had acute respiratory viral infections (ARVI) more than four times a year; forty-nine percent (49%) had chronic inflammatory diseases of the ears, nose and throat; forty-five percent (45%) suffered from recurrent herpes viral infections; thirty percent (30%) had chronic inflammatory diseases of the gastrointestinal tract; thirty-three (33%) had recurrent infections of the skin and subcutaneous adipose cellular tissues. Study participants with the spontaneous form of secondary immunodeficiency typically had more than one chronic inflammatory disease. Seventy-one percent (71%) of the subjects with infectious syndrome had three or more different clinical manifestations of a chronic inflammatory disease. Subjects with a single clinical manifestation made up only three percent (3%) of Groups I and II.

[4] = test system: IL-4 production by OvA-stimulated splenocytes; assay: OvA-stimulated production of IL-4 by splenocytes of OvA-immunized mice
Protocol: The OvA was administered subcutaneously to the crest in a volume of 200 μl. Mice were immunized on day 1 with OvA in complete Freund's adjuvant (CFA; Sigma) and on day 15 with the antigen in incomplete Freund's adjuvant (IFA; Sigma). The immune response was analyzed on day 29. Mice were also immunized with 10 μg/mouse of OvA using Alum as an adjuvant.
Thymuses and spleens from mice of each treatment group were pooled, and then minced with scissors. The minced tissues were suspended in sterile PBS to form cell suspensions, filtered through a double gauze layer and centrifuged. Cells were washed twice with PBS, re-suspended in RPMI-1640 (Sigma) with 2.0 mM of L-glutamine, 50 μM of mercaptoethanol, and 10 μg/ml of gentamycin (complete medium); and cell counts were made. (The splenocyte suspension was washed with a 0.86% solution of NH4Cl to pre-lyse erthrocytes.)
Assessment of Mitogen- and Antigen-Induced Production of Cytokines: Thymic cells (1×10^6/well) in complete medium with 2% FCS were stimulated with ConA (0, 1, and 2 μg/ml). […] Concentrations of IL-2, IL-4, IL-10, IL-12R40 and IFNγ in the supernatants were determined by solid-phase EIA with EIA Expansion Kits, available from BD Biosciences (formerly Pharmingen), in accordance with the manufacturer's instructions.

[5] = test system: leukocytes and lymphocytes in peripheral blood; assay: Concentration of leukocytes and lymphocytes in peripheral blood before and after vaccination; format: in vivo, human; conditions: After vaccination
[6] = thymic cells, ConA 1 μg/ml, 0.01 μg/kg Tablet, per os
[7] = thymic cells, ConA 1 μg/ml, 0.01 μg/kg per os
[8] = thymic cells, ConA 1 μg/ml, 0.1 μg/kg Tablet, per os
[9] = thymic cells, ConA 1 μg/ml, 0.1 μg/kg i/p, Table 4
[10] = thymic cells, ConA 1 μg/ml, 0.1 μg/kg i/p, Table 5
[11] = thymic cells, ConA 1 μg/ml, 0.1 μg/kg per os
[12] = thymic cells, ConA 1 μg/ml, 1.0 μg/kg Tablet, per os
[13] = thymic cells, ConA 1 μg/ml, 1.0 μg/kg i/p, Table 4
[14] = thymic cells, ConA 1 μg/ml, 1.0 μg/kg i/p, Table 5
[15] = thymic cells, ConA 1 μg/ml, 1.0 μg/kg per os
[16] = thymic cells, ConA 1 μg/ml, 10.0 μg/kg Tablet, per os
[17] = thymic cells, ConA 1 μg/ml, 10.0 μg/kg per os
[18] = thymic cells, ConA 1 μg/ml, 100.0 μg/kg per os
[19] = Patients of group 2 (SCV-07 + vaccine)

N[C@H](CCC(=O)N[C@@H](Cc1c[nH]c2ccccc12)C(=O)O)C(=O)O [SCV-07, γ-D-glutamyl-L-tryptophan]
subpopulation composition of T-cells and expression of their activation markers (thymic cells [1]; thymic cells and splenocytes ex vivo 72 hours after the last treatment, i/p or per os, data not shown): No significant differences
CD25-positive cells, % (thymic cells [1]; 0.1 μg/kg Tablet, per os): 0.7%
CD69-positive, % (thymic cells [1]; 0.1 μg/kg Tablet, per os): 3.35%
CD25-positive cells, % (thymic cells [1]; 0.1 μg/kg i/p): 0.30%
CD69-positive, % (thymic cells [1]; 0.1 μg/kg i/p): 2.03%
CD25-positive cells, % (thymic cells [1]; 1.0 μg/kg Tablet, per os): 0.79%
CD69-positive, % (thymic cells [1]; 1.0 μg/kg Tablet, per os): 4.61%
CD25-positive cells, % (thymic cells [1]; 1.0 μg/kg i/p): 1.72%
CD69-positive, % (thymic cells [1]; 1.0 μg/kg i/p): 7.86%
CD25-positive cells, % (thymic cells [1]; 10.0 μg/kg Tablet, per os): 0.71%
CD69-positive, % (thymic cells [1]; 10.0 μg/kg Tablet, per os): 2.24%
minimal dose of SCV-07 given as a crushed tablet which caused significant enhancement of proliferation (thymic cells [2]; crushed tablet per os, ConA 1 μg/ml): 0.1 µg/kg
minimal SCV-07 dose which caused significant increase in proliferation of thymic cells (thymic cells [2]; oral administration, the same as for i/p): 0.1 µg/kg
Spontaneous proliferation (cpm) M ± SD (thymic cells [2]; thymic cells, 0.01 μg/kg Tablet, per os): 308 ± 104 cpm
Spontaneous proliferation (cpm) M ± SD (thymic cells [2]; thymic cells, 0.01 μg/kg per os): 238 ± 64 cpm
Spontaneous proliferation (cpm) M ± SD (thymic cells [2]; thymic cells, 0.1 μg/kg Tablet, per os): 395 ± 136 cpm
Spontaneous proliferation (cpm) M ± SD (thymic cells [2]; thymic cells, 0.1 μg/kg i/p, Table 4): 268 ± 114 cpm
Spontaneous proliferation (cpm) M ± SD (thymic cells [2]; thymic cells, 0.1 μg/kg i/p, Table 5): 251 ± 36 cpm
Spontaneous proliferation (cpm) M ± SD (thymic cells [2]; thymic cells, 0.1 μg/kg per os): 250 ± 75 cpm
Spontaneous proliferation (cpm) M ± SD (thymic cells [2]; thymic cells, 1.0 μg/kg Tablet, per os): 355 ± 62 cpm
Spontaneous proliferation (cpm) M ± SD (thymic cells [2]; thymic cells, 1.0 μg/kg i/p, Table 4): 342 ± 83 cpm
Spontaneous proliferation (cpm) M ± SD (thymic cells [2]; thymic cells, 1.0 μg/kg i/p, Table 5): 555 ± 20 cpm
Spontaneous proliferation (cpm) M ± SD (thymic cells [2]; thymic cells, 1.0 μg/kg per os): 198 ± 44 cpm
Spontaneous proliferation (cpm) M ± SD (thymic cells [2]; thymic cells, 10.0 μg/kg Tablet, per os): 317 ± 77 cpm
Spontaneous proliferation (cpm) M ± SD (thymic cells [2]; thymic cells, 10.0 μg/kg per os): 246 ± 51 cpm
Spontaneous proliferation (cpm) M ± SD (thymic cells [2]; thymic cells, 100.0 μg/kg per os): 272 ± 98 cpm
Induced proliferation (cpm) M ± SD (thymic cells [2]; [6]): 3144 ± 582 cpm
Stimulation index (thymic cells [2]; [6]): 10.2
Induced proliferation (cpm) M ± SD (thymic cells [2]; [7]): 6698 ± 1465 cpm
Stimulation index (thymic cells [2]; [7]): 28.1
Induced proliferation (cpm) M ± SD (thymic cells [2]; [8]): 9900 ± 2021 cpm
Stimulation index (thymic cells [2]; [8]): 25.1
Induced proliferation (cpm) M ± SD (thymic cells [2]; [9]): 14261 ± 1400 cpm
Stimulation index (thymic cells [2]; [9]): 53.3
Induced proliferation (cpm) M ± SD (thymic cells [2]; [10]): 9897 ± 678 cpm
Stimulation index (thymic cells [2]; [10]): 39.4
Induced proliferation (cpm) M ± SD (thymic cells [2]; [11]): 9754 ± 1633 cpm
Stimulation index (thymic cells [2]; [11]): 39.1
Induced proliferation (cpm) M ± SD (thymic cells [2]; [12]): 10248 ± 1913 cpm
Stimulation index (thymic cells [2]; [12]): 28.9
Induced proliferation (cpm) M ± SD (thymic cells [2]; [13]): 20995 ± 6425 cpm
Stimulation index (thymic cells [2]; [13]): 61.4
Induced proliferation (cpm) M ± SD (thymic cells [2]; [14]): 33418 ± 3490 cpm
Stimulation index (thymic cells [2]; [14]): 49.7
Induced proliferation (cpm) M ± SD (thymic cells [2]; [15]): 20658 ± 5873 cpm
Stimulation index (thymic cells [2]; [15]): 104.6
Induced proliferation (cpm) M ± SD (thymic cells [2]; [16]): 7675 ± 1456 cpm
Stimulation index (thymic cells [2]; [16]): 24.2
Induced proliferation (cpm) M ± SD (thymic cells [2]; [17]): 13905 ± 2443 cpm
Stimulation index (thymic cells [2]; [17]): 56.6
Induced proliferation (cpm) M ± SD (thymic cells [2]; [18]): 27589 ± 1331 cpm
Stimulation index (thymic cells [2]; [18]): 101.4
proliferation of cells stimulated by the optimal dose of ConA (thymic cells [2]; thymic cells, per os or i/p, data not shown): did not significantly change
participants reporting herpes outbreaks one to two times during a year ([3]; after vaccination and SCV-07 (13% before)): 53%
participants with herpes infections five times a year or more ([3]; after vaccination and SCV-07 administration (40% before)): no participants
incidence of ARVI ([3]; subjects who previously reported ARVI between 5 and 9 times a year, vaccine + SCV-07): sharply reduced
participants without episodes or outbreaks of herpes ([3]; vaccinated and received SCV-07): Thirty-four
subjects with aggravated chronic ENT diseases three to four times a year who had no aggravated incidents during the first year after vaccination ([3]; vaccinated participants that received SCV-07): 35%
frequency of chronic diseases of the gastrointestinal tract and the urogenital system ([3]; vaccinated participants with infectious syndrome that received SCV-07): did not change
levels of IL-4 production in supernatants of OvA-stimulated splenocytes ([4]; OvA/Alum, all animal groups): below the sensitivity of the test system
levels of IL-4 in supernatants of OvA-stimulated splenocytes ([4]; OvA/FA, all animals, below the sensitivity of the test-system): < 6 pg/mL
Leukocytes × 10^9/l ([5]; Healthy subjects (Group III)): 6.04 ± 0.31 10^9/l
Lymphocytes % ([5]; Healthy subjects (Group III)): 19.05 ± 1.13%
Lymphocytes × 10^9/l ([5]; Healthy subjects (Group III)): 1.19 ± 0.11 10^9/l
Lymphocytes % [5, 19]: 27.81 ± 2.04%
Lymphocytes × 10^9/l [5, 19]: 1.608 ± 0.096 10^9/l
Leukocytes × 10^9/l ([5]; Patients of group 2 (infectious syndrome, SCV-07 1 mg i.m. + hepatitis B vaccine)): 5.938 ± 0.351 10^9/l
